Measured values as given in patent US8901176B2, “Methods for treatment of Parkinson's disease” (Newron Pharmaceuticals, S.P.A., priority 2003, dated 2014).

Tests used:
[1] = tested on: patients affected by idiopathic early Parkinson's disease; experiment: Phase II dose finding, double-blind, placebo controlled 12-week study: efficacy (UPDRS section III responder rate, CGI); format: in vivo, human; details: for Non Responders, % / Responders, % / Responder rate (improvement of at least 30% in UPDRS section III): final visit; for Responder rate at final visit, %: 12 weeks, ITT cohort, versus placebo 21.4%
Description: Mode of administration was oral, once daily; and duration of treatment was 12 weeks. The primary efficacy variable in this study was the proportion of patients considered to have achieved a response defined as an improvement of at least 30% in the unified Parkinson's disease ratings scale (UPDRS) section III score between baseline (Visit 2) and the end of the study (Visit 9 or early study termination).
The intent-to-treat (ITT) cohort was defined as all randomized patients who received at least one dose of study medication and for whom at least one UPDRS section III assessment after treatment was available.
The analysis based on the ITT Cohort was considered a primary analysis and was performed for all parameters except safety parameters.
The per-protocol (PP) cohort was defined as all patients who completed the study without major protocol violations. Minor violations not leading to exclusion from the PP cohort were defined during a blind review meeting after data cleaning. Drop-outs due to lack of efficacy and due to adverse events were not excluded from the PP cohort.
The primary efficacy variable was the percentage of patients with an improvement of at least 30% in the UPDRS section III score between baseline (Visit 2) and the end of the study (Visit 9 or early study termination). Comparison between the treatment groups was performed in the ITT analysis cohort (primary analysis) using a logistic regression model taking into account UPDRS section III score at baseline, the patient's treatment history (de-novo, single dopamine agonist alone, single dopamine agonists with a prior Parkinson's disease treatment) and the country.
The percentage of patients with an improvement of at least 30% in the UPDRS section III score at Visits 5 and 7 was analyzed using the same methods as for the primary efficacy variable.

[2] = tested on: healthy volunteers; details: 71 healthy volunteers; single doses of 10 mg/kg or 7 days of repeated doses of 5 mg/kg/day; cited from earlier work
[3] = tested on: rodents given MPTP; details: cited from earlier work
[4] = tested on: animal model of wearing off; details: response diminished after 28 days continuous L-dopa treatment; cited from earlier work
[5] = tested on: primates; details: after 12 week daily administration; cited from earlier work
[6] = tested on: MAO-B; details: cited from earlier work
[7] = pre-clinical studies; cited from earlier work
[8] = tested on: healthy volunteers; details: in vivo; cited from earlier work
[9] = tested on: patients affected by idiopathic early Parkinson's disease; experiment: Phase II dose finding, double-blind, placebo controlled 12-week study: safety (adverse events, vital signs, ECG, laboratory); details: for related adverse events: placebo 25.0%; for percentage of patients with adverse events: placebo 50.0%
Description: Safety was monitored by adverse events, vital signs, 12-lead ECG and clinical laboratory variables.
Patients were assigned to the study treatment group as randomized.
The analyses based on the safety cohort were performed for the safety parameters, demographic data and the most important baseline characteristics which were defined in the analysis plan.
Incidences of adverse events were calculated overall, by body system and by preferred term. Vital sign measurements at baseline (Visit 2) were compared to further visits using the Kruskal-Wallis test. All other safety variables were analysed descriptively.

[10] = De Novo subgroup (N = 66), Safinamide 0.5 mg/kg
[11] = De Novo subgroup (N = 66), Safinamide 1.0 mg/kg

Structure (SMILES): C[C@H](NCc1ccc(OCc2cccc(F)c2)cc1)C(N)=O [Safinamide, (+)-(S)-2-[[p-[(m-fluorobenzyl)oxy]-benzyl]amino]propionamide]
- Non Responders, % [1, 10]: 77.3%
- Responders, % [1, 10]: 22.7%
- Non Responders, % [1, 11]: 77.3%
- Responders, % [1, 11]: 22.7%
- Responder rate at final visit, % ([1]; Safinamide 0.5 mg/kg oral once daily, group N = 55, p 0.132): 30.9%
- Responder rate at final visit, % ([1]; Safinamide 1.0 mg/kg oral once daily, group N = 56, p 0.016): 37.5%
- Non Responders, % ([1]; Single DA subgroup (N = 101), Safinamide 0.5 mg/kg add-on): 63.6%
- Non Responders, % ([1]; Single DA subgroup (N = 101), Safinamide 1.0 mg/kg add-on): 52.9%
- Responders, % ([1]; Single DA subgroup (N = 101; stable dopamine agonist treatment), Safinamide 0.5 mg/kg add-on, placebo 20.6%): 36.4%
- Responders, % ([1]; Single DA subgroup (N = 101; stable dopamine agonist treatment), Safinamide 1.0 mg/kg add-on, placebo 20.6%, P = 0.024): 47.1%
- Responder rate (improvement of at least 30% in UPDRS section III) ([1]; patients who received a single dopamine agonist alone, 0.5 mg safinamide, placebo 25.0%): 33.3%
- Responder rate (improvement of at least 30% in UPDRS section III) ([1]; patients who received a single dopamine agonist alone, 1.0 mg safinamide, placebo 25.0%): 50.0%
- Responder rate (improvement of at least 30% in UPDRS section III) ([1]; patients with a dopamine agonist with a prior Parkinson's disease treatment, 0.5 mg safinamide, placebo 14.3%): 40.0%
- Responder rate (improvement of at least 30% in UPDRS section III) ([1]; patients with a dopamine agonist with a prior Parkinson's disease treatment, 1.0 mg safinamide, placebo 14.3%): 43.8%
- changes in CGI part I between baseline (Visit 2) and Visit 6 ([1]; safinamide 0.5 mg/kg group versus other groups, p=0.049, Fisher's exact test): better outcome
- average improvement of patients ([1]; safinamide added to a stabilized dose of a variety of dopamine agonists): 27.8%
- average improvement of patients ([1]; safinamide administered alone): 6.9%
- side effects [2]: did not produce any clinically relevant side effect
- nigral neuronal death ([3]; given 4 h after the toxin (MPTP) administration): capable of preventing nigral neuronal death
- neostriatal dopamine depletion ([3]; given prior to the administration of MPTP): prevented neostriatal dopamine depletion
- motor effect in response to L-dopa [4]: restores the efficacy and duration of the motor effect
- neostriatal dopamine [5]: significant increase of neostriatal dopamine with increased turnover
- inhibition of MAO-B activity [6]: potent, reversible inhibitor
- anticonvulsant activity [7]: broad spectrum of anticonvulsant activity
- amount of i.v. tyramine to raise BP by 30 mm Hg, compared to placebo (cheese effect) [8]: equal or greater amount of i.v. tyramine was required
- overall safety (other vital signs, ECG recordings, laboratory parameters) ([9]; 0.5 and 1.0 mg/kg, 12 weeks): no safety concerns were raised
- mean heart rate, change from baseline to the final visit ([9]; other treatment groups (safinamide 0.5 mg/kg, placebo)): a decrease was observed
- tremor aggravated (nervous system disorders, most frequent adverse event) ([9]; safinamide 0.5 mg/kg group): 3.6 % of patients
- patients who experienced serious adverse events ([9]; safinamide 0.5 mg/kg group (atrial fibrillation, pregnancy), unlikely related or not related): Two
- related adverse events ([9]; safinamide 0.5 mg/kg group): 12.5 % of patients
- percentage of patients with adverse events ([9]; safinamide 0.5 mg/kg group): 37.5 % of patients
- nausea (gastrointestinal system disorders, most frequent adverse event) ([9]; safinamide 1.0 mg/kg group): 3.6 % of patients
- patients who experienced serious adverse events ([9]; safinamide 1.0 mg/kg group (myasthenia gravis), not related): one
- mean heart rate, change from baseline to the final visit ([9]; safinamide 1.0 mg/kg group, p=0.037, Kruskal-Wallis test): increased
- related adverse events ([9]; safinamide 1.0 mg/kg group): 10.7 % of patients
- percentage of patients with adverse events ([9]; safinamide 1.0 mg/kg group): 32.1 % of patients
- deaths ([9]; whole study, 0.5 and 1.0 mg/kg groups): No deaths were reported
